{"source": "patent US9221800B2", "about": "“Isoxazole treatments for diabetes” (The Board of Regents of the University of Texas System, priority 2011, dated 2015)", "key": {"p300": {"target": "T1, p300 (Homo sapiens, UniProt Q09472)", "T1 construct": "expressed in transfected cells; host or cells: HEK293", "T1 sequence (Q09472 whole entry, species assumed)": "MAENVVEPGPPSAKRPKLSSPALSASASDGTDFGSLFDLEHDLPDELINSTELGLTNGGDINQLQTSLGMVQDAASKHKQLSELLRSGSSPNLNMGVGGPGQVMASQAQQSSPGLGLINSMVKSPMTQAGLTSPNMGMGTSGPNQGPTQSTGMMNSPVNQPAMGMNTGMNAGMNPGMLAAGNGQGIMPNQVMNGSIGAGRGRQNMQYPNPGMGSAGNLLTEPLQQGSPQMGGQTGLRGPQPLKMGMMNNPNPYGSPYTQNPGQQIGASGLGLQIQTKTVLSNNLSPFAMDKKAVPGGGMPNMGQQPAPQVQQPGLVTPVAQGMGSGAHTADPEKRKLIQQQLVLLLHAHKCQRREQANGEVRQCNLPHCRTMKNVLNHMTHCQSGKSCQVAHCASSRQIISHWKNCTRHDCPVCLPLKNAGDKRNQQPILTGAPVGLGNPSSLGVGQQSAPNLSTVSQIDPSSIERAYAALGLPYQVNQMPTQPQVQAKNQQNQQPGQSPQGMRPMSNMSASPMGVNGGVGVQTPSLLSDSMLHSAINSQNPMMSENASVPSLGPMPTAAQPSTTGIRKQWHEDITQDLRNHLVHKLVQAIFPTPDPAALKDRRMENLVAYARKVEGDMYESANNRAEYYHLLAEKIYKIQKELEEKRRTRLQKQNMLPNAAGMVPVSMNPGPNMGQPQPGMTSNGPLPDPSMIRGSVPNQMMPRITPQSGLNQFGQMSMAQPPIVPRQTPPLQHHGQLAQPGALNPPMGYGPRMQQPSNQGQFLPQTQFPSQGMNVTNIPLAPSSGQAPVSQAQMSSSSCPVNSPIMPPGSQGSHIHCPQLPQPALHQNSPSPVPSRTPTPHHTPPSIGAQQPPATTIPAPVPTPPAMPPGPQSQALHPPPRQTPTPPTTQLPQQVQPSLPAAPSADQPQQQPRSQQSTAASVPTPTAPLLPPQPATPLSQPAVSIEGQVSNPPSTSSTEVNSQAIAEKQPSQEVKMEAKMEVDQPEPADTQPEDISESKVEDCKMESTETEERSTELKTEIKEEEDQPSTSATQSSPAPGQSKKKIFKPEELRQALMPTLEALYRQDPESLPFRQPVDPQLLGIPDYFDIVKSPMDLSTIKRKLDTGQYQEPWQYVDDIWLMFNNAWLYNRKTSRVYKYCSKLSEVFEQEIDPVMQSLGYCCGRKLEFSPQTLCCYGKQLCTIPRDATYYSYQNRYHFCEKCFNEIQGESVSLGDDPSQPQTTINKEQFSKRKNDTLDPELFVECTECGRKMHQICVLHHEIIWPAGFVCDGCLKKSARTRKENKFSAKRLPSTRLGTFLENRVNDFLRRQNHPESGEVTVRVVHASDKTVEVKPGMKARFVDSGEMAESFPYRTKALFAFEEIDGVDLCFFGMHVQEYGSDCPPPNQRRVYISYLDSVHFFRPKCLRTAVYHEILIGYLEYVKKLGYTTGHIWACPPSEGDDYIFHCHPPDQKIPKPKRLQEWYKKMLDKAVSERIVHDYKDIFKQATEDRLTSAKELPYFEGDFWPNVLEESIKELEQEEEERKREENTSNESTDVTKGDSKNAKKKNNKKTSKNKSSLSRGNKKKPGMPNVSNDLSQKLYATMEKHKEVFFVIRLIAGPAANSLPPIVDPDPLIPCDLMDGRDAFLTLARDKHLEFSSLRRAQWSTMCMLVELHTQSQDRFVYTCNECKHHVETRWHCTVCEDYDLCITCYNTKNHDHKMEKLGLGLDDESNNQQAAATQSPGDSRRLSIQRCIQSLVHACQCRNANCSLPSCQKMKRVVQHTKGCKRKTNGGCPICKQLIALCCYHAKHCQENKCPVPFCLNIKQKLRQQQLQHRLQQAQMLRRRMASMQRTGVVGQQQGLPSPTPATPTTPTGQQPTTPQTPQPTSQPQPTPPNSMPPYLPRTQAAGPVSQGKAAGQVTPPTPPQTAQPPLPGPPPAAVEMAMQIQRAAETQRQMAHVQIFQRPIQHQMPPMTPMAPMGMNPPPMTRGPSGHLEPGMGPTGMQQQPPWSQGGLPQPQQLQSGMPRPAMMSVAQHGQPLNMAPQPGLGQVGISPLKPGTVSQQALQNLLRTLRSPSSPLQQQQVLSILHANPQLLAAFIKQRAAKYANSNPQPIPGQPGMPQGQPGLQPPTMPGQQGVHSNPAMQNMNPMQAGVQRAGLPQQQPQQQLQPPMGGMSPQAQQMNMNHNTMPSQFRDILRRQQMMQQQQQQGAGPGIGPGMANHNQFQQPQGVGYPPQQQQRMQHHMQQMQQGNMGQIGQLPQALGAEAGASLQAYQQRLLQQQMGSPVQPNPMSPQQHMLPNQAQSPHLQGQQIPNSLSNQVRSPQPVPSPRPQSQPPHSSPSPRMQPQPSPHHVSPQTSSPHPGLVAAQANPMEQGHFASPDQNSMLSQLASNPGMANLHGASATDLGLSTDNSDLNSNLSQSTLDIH", "test": "HAT activity of HATs expressed in 293 cells", "type": "cell-based", "settings": "combination of ERK2 expression and Isx, 24 h (FIG. 8)", "description": "(FIG. 8A) Combined effect of Isx treatment for 24 h and WT ERK2 (W) or kinase dead K52R ERK2 (R) on the HAT activities of p300, and (FIG. 8B) other HATs, CBP, PCAF and GCN5-L2, transfected in HEK293 cells."}, "human islets": {"tested_on": "human islets", "test": "Immunohistochemical staining of cultured human islets", "type": "cell-based", "settings": "islets in culture for 2 months, Isx for 2 days (FIG. 1E)", "experimental": "FIGS. 1A-E. Isx (LSH-1) induces expression of insulin and transcription factors in primary cultured human islets. (FIG. 1A) Primary human islets that had been cultured in RPMI 160 for 6 months were treated with vehicle or 40 μM Isx for 1 or 2 d. Expression of human insulin and glucagon genes was assessed by Taqman quantitative RT-PCR. (FIG. 1B) Insulin secretion measured by ELISA over 24 h from islets treated with Isx or vehicle for 1 or 2 d. (FIG. 1C) Total insulin content of islets cultured for 3 mo and fresh islets, each treated for 48 h with Isx or DMSO. (FIG. 1D) Time course of pancreatic gene induction in islets cultured for 1 year treated with DMSO (8 days) or 40 μM Isx for 2, 4 or 8 days. (FIG. 1E) Immunohistochemical staining using antibodies against insulin, BETA2, Neurogenin3 (Ngn3) and MafA of islets cultured for 2 months and treated with Isx or vehicle for 48 h. Nuclei were stained with DAPI."}, "insulin gene promoter": {"tested_on": "insulin gene promoter", "test": "ChIP analysis of association with the insulin promoter in MIN6 cells", "type": "cell-based, mouse", "experimental": "ChIP was as described (Lawrence et al., 2008) with the following modifications. Chromatin was cross-linked with 1% formaldehyde and sonicated with a Bioruptor 200 (Diagenode) in an ice cold water bath. Antibodies immobilized on protein A-Sepharose beads were used for immunoprecipitation. ChIP products were analyzed by real-time Q-PCR as previously described for real-time PCR analysis (Lawrence et al., 2008) using the following primers (5′-CAGACCTAGCACCAGGG-3′ (SEQ ID NO:1) and 5′-GGACTTTGCTGTTTGTCCC-3′ (SEQ ID NO:2)) to amplify the −157/−50 fragment of the mouse insulin promoter encompassing the C1 (MafA), E1 (BETA2) and A1 (PDX-1) binding sites. The results were expressed relative to input and presented as mean+/− SEM of at least two independent experiments in triplicate."}, "MIN6 cells": {"tested_on": "MIN6 cells", "test": "Quantitative RT-PCR of endogenous insulin gene expression in MIN6 cells", "type": "cell-based, mouse", "experimental": "FIGS. 2A-E. Isx (LSH-1) activates insulin expression and improves β cell function in MIN6 cells. (FIG. 2A) Dose-response relationship of MIN6 cells treated with 5-80 μM Isx for 24 h or DMSO (0.08%—similar to the highest concentration of Isx). Whole cell lysates (40 μg) were subjected to immunoblotting using antibodies against BETA2NeuroD1, MafA, PDX-1, pERK1/2 (pT183/pY185), acetylated histones ACH4-K5K8K12K16 and ACH3K9 and total histone H3. (FIG. 2B) Quantitative RT-PCR of murine insulin1 and insulin2 gene expression in MIN6 cells treated with Isx for 24 h as in FIG. 2A. (FIG. 2C) GSIS in 15 min from MIN6 cells pretreated with Isx or vehicle for 48 h in the presence or absence of the MEK1/2 inhibitor U0126 for 24 h. (FIG. 2D) Insulin content measured by ELISA in MIN6 cells treated with Isx for 24 or 48 h. […]\nTotal RNA was extracted from human islet preparations with TRI reagent according to manufacturer's protocol (Ambion). cDNA was prepared from total RNA by a mixture of random hexamer- and oligo-dT-primed reverse transcription (iScript Biorad). The expression of insulin and glucagon relative to 18S RNA was evaluated by TaqMan assays (Applied Biosystems). Relative expression of pancreatic factors was determined using Power SYBR Green PCR Master Mix (Applied Bio systems). […]"}, "HDAC": {"tested_on": "HDAC", "test": "HDAC activity in nuclear extracts of treated MIN6 cells", "type": "cell-based, mouse", "settings": "24 h treatment, TSA 2 μM positive control (FIG. 4B)", "experimental": "The histone acetyl transferase and deacetylase activities were measured in 50 μg of nuclear protein using the HAT and HDAC activity colorimetric assay kits from Biovision Biotechnology according to manufacturer's recommendations."}, "[1]": {"tested_on": "rat insulin 1 promoter-luciferase reporter (pGL3-rIns -410, +1)", "test": "Insulin promoter luciferase reporter assay in HEK293 cells", "type": "cell-based", "experimental": "HEK 293 cells (0.15×10^6 cells) in triplicate were transfected with the pGL3-rIns reporter construct (0.1 μg/well) (Stratagene) and cotransfected with 0.5 μg/well of either empty vector (pcDNA3.1) or vectors encoding BETA2:myc, MafA:myc or PDX-1:myc using Lipofectamine 2000 (Invitrogen). After 24 h, cells were stimulated with 20 μM Isx or DMSO for another 24 h. Luciferase activity was measured using the dual luciferase reporter system (Promega) with Renilla Luciferase as an internal control."}}}
{"smiles": "O=C(NC1CC1)c1cc(-c2cccs2)on1", "note": "[Isx, N-cyclopropyl-5-(thiophen-2-yl)isoxazole-3-carboxamide]", "values": [{"measurement": "p300 HAT activity", "setting": "p300", "value": "increased"}, {"measurement": "Ngn3, BETA2, and insulin immunostaining", "setting": "human islets", "value": "obvious increase"}, {"measurement": "Chromatin recruitment of p300 to the insulin promoter upon stimulation by glucose", "setting": "insulin gene promoter; Isx pretreatment 24 h", "value": "increased"}, {"measurement": "chromatin binding of BETA2 and MafA to the insulin gene promoter", "setting": "insulin gene promoter; compared with glucose stimulation (FIGS. 3D-E)", "value": "Comparable or greater"}, {"measurement": "increase in preproinsulin mRNA", "setting": "MIN6 cells; Isx 24 h (FIG. 2B)", "value": "≤ 4", "unit": "fold"}, {"measurement": "concentration for optimal activation of endogenous insulin gene expression", "setting": "MIN6 cells; MIN6 cells (FIG. 12)", "value": 20, "unit": "µM"}, {"measurement": "HDAC activity in MIN6 cells", "setting": "HDAC", "value": "not affected"}, {"measurement": "increase of the activity of PDX-1 (insulin gene reporter) by Isx", "setting": "[1]; 20 μM Isx 24 h", "value": "two-fold or less"}, {"measurement": "Insulin gene reporter activity increase by either BETA2 or MafA in the presence of Isx", "setting": "[1]; 20 μM Isx 24 h (FIG. 3A, FIG. 7)", "value": "≥ 4", "unit": "fold"}]}
